The text below walks through data of patent publication US9969752B2, “Inhibitors of HIF prolyl hydroxylase” (MERCK SHARP & DOHME CORP., priority 2014, dated 2018).

T1 sequence (Q9GZT9 whole entry): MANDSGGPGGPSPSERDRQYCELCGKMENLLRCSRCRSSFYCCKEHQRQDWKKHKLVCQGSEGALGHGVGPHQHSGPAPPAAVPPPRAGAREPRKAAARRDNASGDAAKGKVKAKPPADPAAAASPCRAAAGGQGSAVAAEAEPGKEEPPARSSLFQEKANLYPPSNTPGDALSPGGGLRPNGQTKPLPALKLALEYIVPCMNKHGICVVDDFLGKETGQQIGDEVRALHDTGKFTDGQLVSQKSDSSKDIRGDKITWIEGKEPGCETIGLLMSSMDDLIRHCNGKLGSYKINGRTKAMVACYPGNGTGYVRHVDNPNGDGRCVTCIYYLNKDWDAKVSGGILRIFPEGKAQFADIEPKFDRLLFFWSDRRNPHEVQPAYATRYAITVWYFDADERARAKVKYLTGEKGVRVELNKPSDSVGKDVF

One assay addresses T1, Human HIF-PHD2 (Homo sapiens, UniProt Q9GZT9).
T1 construct: FLAG-tagged full length PHD2 expressed in and purified from baculovirus-infected Sf9 cells; FLAG; made in house; host or cells: baculovirus-infected Sf9 cells
The experiment in a line: Inhibition of the hydroxylation of a HIF peptide by PHD2 (time resolved fluorescence, 384-well). The class given is biochemical. The conditions noted are these: FLAG-tagged full length PHD2; 0.2 μM 2-oxoglutarate, 0.5 μM HIF-1α peptide; 45 minutes at room temperature; read-out: Human HIF-PHD2 IC50. As for the experimental part: To each well of a 384-well plate, 1 μL of test compounds in DMSO (final concentration ranging from 0.3 nM to 10 uM) were added into 20 μl of assay buffer (50 mM Tris pH 7.4/0.01% Tween-20/0.1 mg/ml bovine serum albumin/10 μM ferrous sulfate/1 mM sodium ascorbate/20 μg/ml catalase) containing 0.15 μg/ml FLAG-tagged full length PHD2 expressed in and purified from baculovirus-infected Sf9 cells. After a 5 min preincubation at room temperature, the enzymatic reactions were initiated by the addition of 4 μL of substrates {final concentrations of 0.2 μM 2-oxoglutarate and 0.5 μM HIF-1α peptide biotinyl-[…] […] After incubation for 45 minutes at room temperature, the reactions were terminated by the addition of a 25 μL quench/detection mix to a final concentration of 1 mM ortho-phenanthroline, 0.1 mM EDTA, 0.5 nM anti-(His)6 LANCE reagent (Perkin-Elmer Life Sciences), 100 nM AF647-labeled streptavidin (Invitrogen), and 2 μg/ml (His)6-VHL complex {S. Tan Protein Expr. Purif.
In the case of `Cc1ccc2c3c1c(O)c(C(=O)NCC(=O)O)c(=O)n3C(Cc1ccc(C(F)(F)F)cc1)CO2` (stereo not shown) [Example 30, 2-(7-Hydroxy-8-methyl-5-oxo-3-(4-(trifluoromethyl)benzyl)-3,5-dihydro-2H-[1,4]oxazino[2,3,4-ij]quinoline-6-carboxamido)acetic acid], the IC50 was 39 nM.

On to `CS(=O)(=O)c1ccc2c(O)c(C(=O)NCC(=O)O)c(=O)n3c2c1OCC3Cc1ccc(C(F)(F)F)cc1` (stereo not shown) [Example 31, 2-(7-Hydroxy-10-(methylsulfonyl)-5-oxo-3-(4-(trifluoromethyl)benzyl)-3,5-dihydro-2H-[1,4]oxazino[2,3,4-ij]quinoline-6-carboxamido)acetic acid], for which the IC50 amounted to 1 nM.

For the molecule `N#Cc1ccc2c(O)c(C(=O)NCC(=O)O)c(=O)n3c2c1OCC3Cc1ccc(C(F)(F)F)cc1` (stereo not shown) [Example 32, 2-(10-Cyano-7-hydroxy-5-oxo-3-(4-(trifluoromethyl)benzyl)-3,5-dihydro-2H-[1,4]oxazino[2,3,4-ij]quinoline-6-carboxamido)acetic acid], the IC50 was 1.3 nM.

For the molecule `Cc1ccc2c(O)c(C(=O)NCC(=O)O)c(=O)n3c2c1OCC3Cc1ccc(C(F)(F)F)cc1` (stereo not shown) [Example 33, 2-(7-Hydroxy-10-methyl-5-oxo-3-(4-(trifluoromethyl)benzyl)-3,5-dihydro-2H-[1,4]oxazino[2,3,4-ij]quinoline-6-carboxamido)acetic acid], the IC50 was 17 nM.

Regarding `CC(=O)c1cc2c3c(c1)c(O)c(C(=O)NCC(=O)O)c(=O)n3C(Cc1ccc(C(F)(F)F)cc1)CO2` (stereo not shown) [Example 34, 2-(9-acetyl-7-hydroxy-5-oxo-3-(4-(trifluoromethyl)benzyl)-3,5-dihydro-2H-[1,4]oxazino[2,3,4-ij]quinoline-6-carboxamido)acetic acid], the IC50 turned out to be 3.2 nM.

For `CC(O)c1cc2c3c(c1)c(O)c(C(=O)NCC(=O)O)c(=O)n3C(Cc1ccc(C(F)(F)F)cc1)CO2` (stereo not shown) [Example 35, 2-(7-Hydroxy-9-(1-hydroxyethyl)-5-oxo-3-(4-(trifluoromethyl)benzyl)-3,5-dihydro-2H-[1,4]oxazino[2,3,4-ij]quinoline-6-carboxamido)acetic acid], the IC50 came to 12 nM.

With `CC(C)(O)c1cc2c3c(c1)c(O)c(C(=O)NCC(=O)O)c(=O)n3C(Cc1ccc(C(F)(F)F)cc1)CO2` (stereo not shown) [Example 36, 2-(7-Hydroxy-9-(2-hydroxypropan-2-yl)-5-oxo-3-(4-(trifluoromethyl)benzyl)-3,5-dihydro-2H-[1,4]oxazino[2,3,4-ij]quinoline-6-carboxamido)acetic acid], the IC50 amounted to 17 nM.

For the molecule `N#Cc1ccc2c(O)c(C(=O)NCC(=O)O)c(=O)n3c2c1OCC3` [Example 37, 2-(10-cyano-7-hydroxy-5-oxo-3,5-dihydro-2H-[1,4]oxazino[2,3,4-ij]quinoline-6-carboxamido)acetic acid], the IC50 was 1.5 nM.

Turning to `CS(=O)(=O)c1ccc2c(O)c(C(=O)NCC(=O)O)c(=O)n3c2c1OCC3` [Example 38, 2-(7-Hydroxy-10-(methylsulfonyl)-5-oxo-3,5-dihydro-2H-[1,4]oxazino[2,3,4-ij]quinoline-6-carboxamido)acetic acid], the IC50 was determined as 1.6 nM.

As for `Cc1ccc2c(O)c(C(=O)NCC(=O)O)c(=O)n3c2c1OCC3` [Example 39, 2-(7-Hydroxy-10-methyl-5-oxo-3,5-dihydro-2H-[1,4]oxazino[2,3,4-ij]quinoline-6-carboxamido)acetic acid], the IC50 was found to be 12 nM.

As for `Cc1cc2c3c(c1)c(O)c(C(=O)NCC(=O)O)c(=O)n3CCO2` [Example 43, 2-(7-hydroxy-9-methyl-5-oxo-3,5-dihydro-2H-[1,4]oxazino[2,3,4-ij]quinoline-6-carboxamido)acetic acid], the IC50 was 24 nM.

In the case of `N#Cc1ccc2c(O)c(C(=O)NCC(=O)O)c(=O)n3c2c1CCC3` [Example 44, 2-(8-Cyano-1-hydroxy-3-oxo-3,5,6,7-tetrahydropyrido[3,2,1-ij]quinoline-2-carboxamido)acetic acid], the IC50 turned out to be 0.9 nM.

For `CS(=O)(=O)c1ccc2c(O)c(C(=O)NCC(=O)O)c(=O)n3c2c1CCC3` [Example 45, 2-(1-Hydroxy-8-(methylsulfonyl)-3-oxo-3,5,6,7-tetrahydropyrido[3,2,1-ij]quinoline-2-carboxamido)acetic acid], the IC50 was determined as 1.1 nM.

Regarding `Cc1ccc2c(O)c(C(=O)NCC(=O)O)c(=O)n3c2c1CCC3` [Example 46, 2-(1-Hydroxy-8-methyl-3-oxo-3,5,6,7-tetrahydropyrido[3,2,1-ij]quinoline-2-carboxamido)acetic acid], the IC50 came to 18 nM.

In the case of `N#Cc1cc2c3c(c1)c(O)c(C(=O)NCC(=O)O)c(=O)n3CCC2` [Example 48, 2-(9-Cyano-1-hydroxy-3-oxo-3,5,6,7-tetrahydropyrido[3,2,1-ij]quinoline-2-carboxamido)acetic acid], the IC50 is 2.6 nM.

In the case of `CS(=O)(=O)c1cc2c3c(c1)c(O)c(C(=O)NCC(=O)O)c(=O)n3CCC2` [Example 49, 2-(1-Hydroxy-9-(methylsulfonyl)-3-oxo-3,5,6,7-tetrahydropyrido[3,2,1-ij]quinoline-2-carboxamido)acetic acid], the IC50 was found to be 1.4 nM.

As for `O=C(O)CNC(=O)c1c(O)c2ccnc3c2n(c1=O)CC(c1ccc(C(F)(F)F)cc1)O3` (stereo not shown) [Example 51, 2-(7-Hydroxy-5-oxo-2-(4-(trifluoromethyl)phenyl)-3,5-dihydro-2H-[1,4]oxazino[2,3,4-ij][1,7]naphthyridine-6-carboxamido)acetic acid], the IC50 was 13 nM.

`N#Cc1ccc(C2Cn3c(=O)c(C(=O)NCC(=O)O)c(O)c4cc(C#N)cc(c43)O2)cc1` (stereo not shown) [Example 52, 2-(9-Cyano-2-(4-cyanophenyl)-7-hydroxy-5-oxo-3,5-dihydro-2H-[1,4]oxazino[2,3,4-ij]quinoline-6-carboxamido)acetic acid]: the IC50 was 0.5 nM.

Consider `O=C(O)CNC(=O)c1c(O)c2cc(Br)cc3c2n(c1=O)CC(c1ccc(Br)cc1)O3` (stereo not shown) [Example 53, 2-(9-Bromo-2-(4-bromophenyl)-7-hydroxy-5-oxo-3,5-dihydro-2H-[1,4]oxazino[2,3,4-ij]quinoline-6-carboxamido)acetic acid], for which the IC50 turned out to be 3.5 nM.

As for `N#Cc1ccc(C2Cn3c(=O)c(C(=O)NCC(=O)O)c(O)c4c(C#N)ccc(c43)O2)cc1` (stereo not shown) [Example 54, 2-(8-Cyano-2-(4-cyanophenyl)-7-hydroxy-5-oxo-3,5-dihydro-2H-[1,4]oxazino[2,3,4-ij]quinoline-6-carboxamido)acetic acid], the IC50 is 1.1 nM.

On to `O=C(O)CNC(=O)c1c(O)c2c(Br)ccc3c2n(c1=O)CC(c1ccc(Br)cc1)O3` (stereo not shown) [Example 55, 2-(8-Bromo-2-(4-bromophenyl)-7-hydroxy-5-oxo-3,5-dihydro-2H-[1,4]oxazino[2,3,4-ij]quinoline-6-carboxamido)acetic acid], for which the IC50 is 2.5 nM.

`N#Cc1ccc(C2Cn3c(=O)c(C(=O)NCC(=O)O)c(O)c4ccc(C#N)c(c43)O2)cc1` (stereo not shown) [Example 56, 2-(10-Cyano-2-(4-cyanophenyl)-7-hydroxy-5-oxo-3,5-dihydro-2H-[1,4]oxazino[2,3,4-ij]quinoline-6-carboxamido)acetic acid]: the IC50 is 0.6 nM.

Take `O=C(O)CNC(=O)c1c(O)c2ccc(Br)c3c2n(c1=O)CC(c1ccc(Br)cc1)O3` (stereo not shown) [Example 57, 2-(10-Bromo-2-(4-bromophenyl)-7-hydroxy-5-oxo-3,5-dihydro-2H-[1,4]oxazino[2,3,4-ij]quinoline-6-carboxamido)acetic acid]: the IC50 was determined as 2.7 nM.

`O=C(O)CNC(=O)c1c(O)c2cccc3c2n(c1=O)CC(c1ccc(C(F)(F)F)cc1)[S+]3[O-]` (stereo not shown) [Example 59, 2-(7-Hydroxy-1-oxido-5-oxo-2-(4-(trifluoromethyl)phenyl)-3,5-dihydro-2H-[1,4]thiazino[2,3,4-ij]quinoline-6-carboxamido)acetic acid]: the IC50 stood at 1 nM.

As to `O=C(O)CNC(=O)c1c(O)c2cccc3c2n(c1=O)CC(c1ccc(C(F)(F)F)cc1)S3(=O)=O` (stereo not shown) [Example 60, 2-(7-Hydroxy-1,1-dioxido-5-oxo-2-(4-(trifluoromethyl)phenyl)-3,5-dihydro-2H-[1,4]thiazino[2,3,4-ij]quinoline-6-carboxamido)acetic acid], the IC50 was found to be 0.8 nM.

Staying with this assay, now noted: FLAG-tagged full length PHD2; 0.2 μM 2-oxoglutarate, 0.5 μM HIF-1α peptide; 45 minutes at room temperature; read-out: MS m/z (M + 1)+ and human HIF-PHD2 IC50.
As to `O=C(O)CNC(=O)c1c(O)c2ccc(-c3ccccc3)c3c2n(c1=O)CCO3` [Example 40, 2-(7-hydroxy-5-oxo-10-phenyl-3,5-dihydro-2H-[1,4]oxazino[2,3,4-ij]quinoline-6-carboxamido)acetic acid], the IC50 is 1.6 nM.

`O=C(O)CNC(=O)c1c(O)c2cccc3c2n(c1=O)CC(c1ccc(C(F)(F)F)cc1)[S+]3[O-]` (stereo not shown) [Example 61, 2-(7-hydroxy-1-oxido-5-oxo-2-(4-(trifluoromethyl)phenyl)-3,5-dihydro-2H-[1,4]thiazino[2,3,4-ij]quinoline-6-carboxamido)acetic acid]: the IC50 stood at 1 nM.

The assay is the same for the next values; noted with them: Human HIF-PHD2 IC50, FLAG-tagged full length PHD2; 0.2 μM 2-oxoglutarate, 0.5 μM HIF-1α peptide; 45 minutes at room temperature.
`O=C(O)CNC(=O)c1c(O)c2cc(Br)cc3c2n(c1=O)CCC3` [Example 47, 2-(9-Bromo-1-hydroxy-3-oxo-3,5,6,7-tetrahydropyrido[3,2,1-ij]quinoline-2-carboxamido)acetic acid] registered an IC50 of 99 nM.
